In this assay the target is T1, PI3Kα H1047R (T47D cells) (Homo sapiens, UniProt P42336, H1047R).
T1 construct: endogenous in cells; host or cells: T47D cells
The assay can be described thus: PI3Kα cellular assay: pAKT HTRF in T47D cells after EGF stimulation. The assay is classed as cell-based. Conditions: for IC50: T47D cells (PI3Kα H1047R), pAKT S473 HTRF, 1 hr compound, 20 ng/ml EGF 10 min. How it is done: SKBR3 or T47D cells are seeded in DMEM containing 10% FBS at 25k cells/well into 96-well cell culture format. Cells are incubated overnight at 37° C. in a 5% CO2 incubator and the following day cell media is aspirated, adherent cells are washed 1× with room temperature PBS prior to serum-free media application. Cells are returned to 37° C. 5% CO2 incubator and incubated a further 16 hrs. Compounds are added to serum starved adherent cells with a top dose of 10,000 nM and 3× multiple dose reductions for a minimum dose of 0.5 nM diluted in DMSO. Cell/compound incubation continues for 1 hr in a 37° C., 5% CO2 incubator prior to 10 minute PIK3CA stimulation with 20 ng/ml EGF. Cells treated with 0.1% DMSO and 20 ng/mL EGF are employed as negative control, cells treated with 10 uM Alpelisib and 20 ng/mL EGF are employed as a positive control. After 10 mins, plates are removed from incubator and cells are lysed with buffer and shaking 45 minutes. […] 384 well plate is left overnight at room temperature before reading HTRF on an Envision plate reader.
ND denotes value not determined with that assay for the specified compound; • for T47D (H1047R) selectivity over SKBR3 (WT): A denotes >20-fold; B denotes 20-fold≥value>5-fold; C denotes ≤5-fold. ND denotes value not determined with that assay for the specified compound; and • for T47D pAKT lipophilic efficiency (LiPE): A denotes >4; B denotes 4≥value>2; C denotes ≤2. ND denotes value not determined with that assay for the specified compound.

The structures appear in SMILES notation.

T1 sequence (P42336 whole entry H1047R): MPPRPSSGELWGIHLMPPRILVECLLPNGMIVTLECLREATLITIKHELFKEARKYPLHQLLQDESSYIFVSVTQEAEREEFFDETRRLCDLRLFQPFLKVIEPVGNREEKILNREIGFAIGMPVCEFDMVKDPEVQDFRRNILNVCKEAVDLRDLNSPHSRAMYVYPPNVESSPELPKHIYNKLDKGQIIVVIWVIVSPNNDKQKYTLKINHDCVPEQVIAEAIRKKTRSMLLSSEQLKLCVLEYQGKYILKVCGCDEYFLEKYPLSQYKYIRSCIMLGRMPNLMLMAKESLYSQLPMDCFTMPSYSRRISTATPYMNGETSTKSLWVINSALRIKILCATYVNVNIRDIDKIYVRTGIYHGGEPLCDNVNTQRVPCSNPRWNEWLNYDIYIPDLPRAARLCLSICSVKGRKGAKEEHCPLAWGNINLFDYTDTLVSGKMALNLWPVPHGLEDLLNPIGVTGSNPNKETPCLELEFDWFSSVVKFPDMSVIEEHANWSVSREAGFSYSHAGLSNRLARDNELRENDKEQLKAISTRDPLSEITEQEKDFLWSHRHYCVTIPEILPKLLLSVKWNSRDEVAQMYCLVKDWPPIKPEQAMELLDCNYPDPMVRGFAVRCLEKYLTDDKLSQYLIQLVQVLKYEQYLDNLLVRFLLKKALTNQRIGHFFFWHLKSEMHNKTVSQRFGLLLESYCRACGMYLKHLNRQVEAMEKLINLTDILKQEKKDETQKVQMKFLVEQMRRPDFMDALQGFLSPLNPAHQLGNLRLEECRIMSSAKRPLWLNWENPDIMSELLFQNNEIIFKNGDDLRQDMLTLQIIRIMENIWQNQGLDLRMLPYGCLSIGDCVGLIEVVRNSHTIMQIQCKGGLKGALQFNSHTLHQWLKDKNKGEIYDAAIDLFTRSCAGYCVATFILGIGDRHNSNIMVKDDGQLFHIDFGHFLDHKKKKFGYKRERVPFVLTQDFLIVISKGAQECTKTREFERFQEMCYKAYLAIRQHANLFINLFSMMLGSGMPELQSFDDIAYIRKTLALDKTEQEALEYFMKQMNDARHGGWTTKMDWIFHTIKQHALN
T1 sequence (P27986 whole entry partner): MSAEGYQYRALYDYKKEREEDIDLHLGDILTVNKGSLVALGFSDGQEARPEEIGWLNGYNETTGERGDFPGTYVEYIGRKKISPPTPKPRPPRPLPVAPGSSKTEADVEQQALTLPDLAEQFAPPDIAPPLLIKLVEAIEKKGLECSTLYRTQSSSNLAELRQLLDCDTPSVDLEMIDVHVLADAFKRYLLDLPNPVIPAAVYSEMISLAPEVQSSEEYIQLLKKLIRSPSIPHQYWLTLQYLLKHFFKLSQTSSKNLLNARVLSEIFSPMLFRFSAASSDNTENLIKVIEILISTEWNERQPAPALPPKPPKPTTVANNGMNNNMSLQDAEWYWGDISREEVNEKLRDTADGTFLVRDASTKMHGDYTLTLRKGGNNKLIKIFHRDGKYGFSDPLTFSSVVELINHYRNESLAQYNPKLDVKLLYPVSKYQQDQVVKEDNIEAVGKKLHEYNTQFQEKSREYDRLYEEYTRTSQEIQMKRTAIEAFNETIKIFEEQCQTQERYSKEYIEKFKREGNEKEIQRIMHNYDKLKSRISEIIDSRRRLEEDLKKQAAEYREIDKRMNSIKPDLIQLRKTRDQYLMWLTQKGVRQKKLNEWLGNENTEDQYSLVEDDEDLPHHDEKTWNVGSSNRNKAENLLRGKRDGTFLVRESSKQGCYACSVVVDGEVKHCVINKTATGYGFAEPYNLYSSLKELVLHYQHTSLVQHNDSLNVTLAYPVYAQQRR

The term IC50 denotes the point on the concentration scale where inhibition reaches its midpoint. Higher therefore signals weaker potency. `Cc1cc([C@H](C)Nc2ccccc2C(N)=O)c2nc(N3CCOCC3)cc(=O)n2c1` [Compound 147]: the IC50 lay within 500 to 2000 nM and the “T47D pAKT S473 HTRF IC50 (H1047R): T47D (H1047R) selectivity over SKBR3 (WT)” value is listed as “B (B denotes 20-fold≥value>5-fold)”.

Regarding `CCc1cc([C@@H](C)Nc2ccccc2C(=O)O)c2nc(N3CCOCC3)cc(=O)n2c1` [Compound 149], the IC50 was above 2000 nM and the “T47D pAKT S473 HTRF IC50 (H1047R): T47D (H1047R) selectivity over SKBR3 (WT)” value was “C (C denotes ≤5-fold)”. For the molecule `Cc1cc(C(C)Nc2ccccc2S(N)(=O)=O)c2nc(N3CCOCC3)cc(=O)n2c1` (stereo not shown) [Compound 151], the “T47D pAKT S473 HTRF IC50 (H1047R): T47D (H1047R) selectivity over SKBR3 (WT)” value is “C (C denotes ≤5-fold)”. Take `Cc1cc([C@H](C)Nc2ccccc2S(N)(=O)=O)c2nc(N3CCOCC3)cc(=O)n2c1` [Compound 152]: the half-inhibitory concentration (IC50) fell in the range of 500 to 2000 nM and the “T47D pAKT S473 HTRF IC50 (H1047R): T47D (H1047R) selectivity over SKBR3 (WT)” value is on record as “B (B denotes 20-fold≥value>5-fold)”.

Regarding `Cc1cc(C(C)Nc2ccccc2C)c2nc(N3CCOCC3)cc(=O)n2c1` (stereo not shown) [Compound 154], the IC50 is above 2000 nM and the “T47D pAKT S473 HTRF IC50 (H1047R): T47D (H1047R) selectivity over SKBR3 (WT)” value is given as “C (C denotes ≤5-fold)”.

Consider `Cc1cc([C@@H](C)Nc2ccccc2C(=O)NS(C)(=O)=O)c2nc(N3CCOCC3)cc(=O)n2c1` [Compound 155], for which the IC50 is above 2000 nM and the “T47D pAKT S473 HTRF IC50 (H1047R): T47D (H1047R) selectivity over SKBR3 (WT)” value was “C (C denotes ≤5-fold)”. The matching figures for `Cc1cc([C@@H](C)Nc2ccccc2CC(=O)O)c2nc(N3CCOCC3)cc(=O)n2c1` [Compound 157]: above 2000 nM and “C (C denotes ≤5-fold)”. The corresponding values for `Cc1cc([C@H](C)Nc2ccccc2CC(=O)O)c2nc(N3CCOCC3)cc(=O)n2c1` [Compound 158] are above 2000 nM and “C (C denotes ≤5-fold)”. The matching figures for `Cc1cc([C@H](C)Nc2ccccc2S(C)(=O)=O)c2nc(N3CCOCC3)cc(=O)n2c1` [Compound 160]: above 2000 nM and “C (C denotes ≤5-fold)”. As to `Cc1cc([C@@H](C)Nc2ccccc2C(=O)O)c2nc(C)cc(=O)n2c1` [Compound 178], the “T47D pAKT S473 HTRF IC50 (H1047R): T47D (H1047R) selectivity over SKBR3 (WT)” value is given as “C (C denotes ≤5-fold)”. Consider `Cc1cc(C(C)Nc2cnccc2C(=O)O)c2nc(N3CCOCC3)cc(=O)n2c1` (stereo not shown) [Compound 194], for which the IC50 is above 2000 nM and the “T47D pAKT S473 HTRF IC50 (H1047R): T47D (H1047R) selectivity over SKBR3 (WT)” value is “C (C denotes ≤5-fold)”. The corresponding values for `CCN1CCN(Cc2ccccc2-c2cc(=O)n3cc(C)cc(C(C)Nc4ccccc4C(=O)O)c3n2)CC1` (stereo not shown) [Compound 229] are above 2000 nM and “C (C denotes ≤5-fold)”.

Turning to `Cc1cc(C(C)Nc2ccccc2C(=O)O)c2nc(N3CCSCC3)cc(=O)n2c1` (stereo not shown) [Compound 239], the IC50 is above 2000 nM and the “T47D pAKT S473 HTRF IC50 (H1047R): T47D (H1047R) selectivity over SKBR3 (WT)” value is “C (C denotes ≤5-fold)”. The corresponding values for `Cc1cc(C(C)Nc2ccccc2C(=O)O)c2nc(N3CCSCC3)cc(=O)n2c1` (stereo not shown) [Compound 240] are below 100 nM and “A (A denotes >20-fold)”. The matching figures for `Cc1cc([C@@H](C)Nc2ccccc2C)c2nc(N3CCOCC3)cc(=O)n2c1` [Compound 248]: below 100 nM and “C (C denotes ≤5-fold)”. Consider `Cc1cc([C@H](C)Nc2ccccc2C)c2nc(N3CCOCC3)cc(=O)n2c1` [Compound 249], for which the 50% inhibitory concentration (IC50) lay within 500 to 2000 nM and the “T47D pAKT S473 HTRF IC50 (H1047R): T47D (H1047R) selectivity over SKBR3 (WT)” value is “C (C denotes ≤5-fold)”. The matching figures for `Cc1cc([C@H](C)Nc2ccccc2)c2nc(-c3cc(C)c4oc(=O)[nH]c4c3)cc(=O)n2c1` [Compound 252]: above 2000 nM and “C (C denotes ≤5-fold)”. The corresponding values for `Cc1cc([C@H](C)Nc2ccccc2)c2nc(-c3cc(F)c4c(N)n[nH]c4c3)cc(=O)n2c1` [Compound 258] are above 2000 nM and “C (C denotes ≤5-fold)”. In the case of `Cc1cc([C@@H](C)Nc2cc(F)cc(F)c2)c2nc(N3CCOCC3)cc(=O)n2c1` [Compound 263], the IC50 was in the range of 500 to 2000 nM and the “T47D pAKT S473 HTRF IC50 (H1047R): T47D (H1047R) selectivity over SKBR3 (WT)” value is listed as “C (C denotes ≤5-fold)”.

For the molecule `Cc1cc([C@H](C)Nc2cc(F)cc(F)c2)c2nc(N3CCOCC3)cc(=O)n2c1` [Compound 264], the IC50 was above 2000 nM and the “T47D pAKT S473 HTRF IC50 (H1047R): T47D (H1047R) selectivity over SKBR3 (WT)” value is given as “C (C denotes ≤5-fold)”. For `Cc1cc(C(C)Nc2ccccc2)c2nc(-c3cnc4[nH]nc(-c5ccccc5)c4c3)cc(=O)n2c1` (stereo not shown) [Compound 265], the IC50 is above 2000 nM and the “T47D pAKT S473 HTRF IC50 (H1047R): T47D (H1047R) selectivity over SKBR3 (WT)” value is “C (C denotes ≤5-fold)”. Regarding `Cc1cc([C@H](C)Nc2ccccc2)c2nc(-c3cnc4[nH]nc(-c5ccccc5)c4c3)cc(=O)n2c1` [Compound 266], the IC50 is above 2000 nM and the “T47D pAKT S473 HTRF IC50 (H1047R): T47D (H1047R) selectivity over SKBR3 (WT)” value was “C (C denotes ≤5-fold)”.

Consider `Cc1cc(C(C)Nc2ccccc2C(=O)O)c2nc(-c3ccncc3)cc(=O)n2c1` (stereo not shown) [Compound 267], for which the IC50 lay within 100 to 500 nM and the “T47D pAKT S473 HTRF IC50 (H1047R): T47D (H1047R) selectivity over SKBR3 (WT)” value was “A (A denotes >20-fold)”. As to `CC(Nc1ccccc1C(=O)O)c1cc(C#N)cn2c(=O)cc(N3CCOCC3)nc12` (stereo not shown) [Compound 273], the IC50 is above 2000 nM and the “T47D pAKT S473 HTRF IC50 (H1047R): T47D (H1047R) selectivity over SKBR3 (WT)” value is “C (C denotes ≤5-fold)”. With `CC(Nc1ccccc1C(=O)O)c1cc(C(N)=O)cn2c(=O)cc(N3CCOCC3)nc12` (stereo not shown) [Compound 276], the IC50 is below 100 nM and the “T47D pAKT S473 HTRF IC50 (H1047R): T47D (H1047R) selectivity over SKBR3 (WT)” value is “C (C denotes ≤5-fold)”. With `Cc1cc(C(C)Nc2ccccc2)c2nc(-c3ccc(N4CC(C)(C)C4)c(C#N)c3)cc(=O)n2c1` (stereo not shown) [Compound 280], the “T47D pAKT S473 HTRF IC50 (H1047R): T47D (H1047R) selectivity over SKBR3 (WT)” value was “C (C denotes ≤5-fold)”. As for `Cc1cc(C(C)NC2=C(CC(=O)O)C=CCC2)c2nc(N3CCSCC3)cc(=O)n2c1` (stereo not shown) [Compound 284], the IC50 was above 2000 nM and the “T47D pAKT S473 HTRF IC50 (H1047R): T47D (H1047R) selectivity over SKBR3 (WT)” value is on record as “C (C denotes ≤5-fold)”. The matching figures for `Cc1cc([C@@H](C)NC2=C(CC(=O)O)C=CCC2)c2nc(N3CCSCC3)cc(=O)n2c1` [Compound 285]: above 2000 nM and “C (C denotes ≤5-fold)”. The corresponding values for `Cc1cc([C@H](C)Nc2ccccc2CC(=O)O)c2nc(N3CCSCC3)cc(=O)n2c1` [Compound 286] are above 2000 nM and “C (C denotes ≤5-fold)”. Take `Cc1cc(C(C)Nc2cccc(F)c2C(=O)O)c2nc(N3CCOCC3)cc(=O)n2c1` (stereo not shown) [Compound 287]: the IC50 is above 2000 nM and the “T47D pAKT S473 HTRF IC50 (H1047R): T47D (H1047R) selectivity over SKBR3 (WT)” value is listed as “C (C denotes ≤5-fold)”.

`Cc1cc(C(C)Nc2ccc(F)cc2C(=O)O)c2nc(N3CCOCC3)cc(=O)n2c1` (stereo not shown) [Compound 288]: the IC50 lay within 500 to 2000 nM and the “T47D pAKT S473 HTRF IC50 (H1047R): T47D (H1047R) selectivity over SKBR3 (WT)” value is “B (B denotes 20-fold≥value>5-fold)”. `Cc1cc(C(C)Nc2cc(F)ccc2C(=O)O)c2nc(N3CCOCC3)cc(=O)n2c1` (stereo not shown) [Compound 289]: the IC50 is 100 to 500 nM and the “T47D pAKT S473 HTRF IC50 (H1047R): T47D (H1047R) selectivity over SKBR3 (WT)” value was “C (C denotes ≤5-fold)”.
